Experimental data taken from US20100041089A1, “IMPROVED METHOD FOR DETECTING CHEMICAL […]” (priority 2006, published 2010).

System: yeast genes (expressed mRNA)
Experiment: DNA chip measurement of expressed mRNA of yeast genes after culture with a toxic chemical substance
Format: cell-based, Saccharomyces cerevisiae S288C
Method in brief: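 Expression is given as treated/untreated fluorescence ratio on a whole-genome yeast DNA chip, a ratio of two or more being significant. Log-phase S288C cultures in YPD at 25 °C received the chemical for 2 h at a dose that slows growth without killing. mRNA was reverse-transcribed with Cy3- or Cy5-dUTP.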

Oc1cc(Cl)c(Cl)cc1Cl [(6), 2,4,5-Trichlorophenol]
The level of expressed mRNA in the presence of chemical substance/The level of expressed mRNA in the absence of chemical substance (yeast gene YJR054W, cultured two hours with substance): 0.7
The level of expressed mRNA in the presence of chemical substance/The level of expressed mRNA in the absence of chemical substance (yeast gene YKL039W): 4.9
The level of expressed mRNA in the presence of chemical substance/The level of expressed mRNA in the absence of chemical substance (yeast gene YKL071W, cultured two hours with substance): 18.6
The level of expressed mRNA in the presence of chemical substance/The level of expressed mRNA in the absence of chemical substance (yeast gene YKL086W, cultured two hours with substance): 1.0
The level of expressed mRNA in the presence of chemical substance/The level of expressed mRNA in the absence of chemical substance (yeast gene YKL151C, cultured two hours with substance): 2.0
The level of expressed mRNA in the presence of chemical substance/The level of expressed mRNA in the absence of chemical substance (yeast gene YKL153W, cultured two hours with substance): 2.9
The level of expressed mRNA in the presence of chemical substance/The level of expressed mRNA in the absence of chemical substance (yeast gene YKL195W, cultured two hours with substance): 2.5
The level of expressed mRNA in the presence of chemical substance/The level of expressed mRNA in the absence of chemical substance (yeast gene YKR076W): 4.7
The level of expressed mRNA in the presence of chemical substance/The level of expressed mRNA in the absence of chemical substance (yeast gene YKR091W, cultured two hours with substance): 1.0
The level of expressed mRNA in the presence of chemical substance/The level of expressed mRNA in the absence of chemical substance (yeast gene YLR054C, cultured two hours with substance): 1.2
The level of expressed mRNA in the presence of chemical substance/The level of expressed mRNA in the absence of chemical substance (yeast gene YLR149C, cultured two hours with substance): 1.4
The level of expressed mRNA in the presence of chemical substance/The level of expressed mRNA in the absence of chemical substance (yeast gene YLR152C, cultured two hours with substance): 2.1
The level of expressed mRNA in the presence of chemical substance/The level of expressed mRNA in the absence of chemical substance (yeast gene YLR194C, cultured two hours with substance): 0.9
The level of expressed mRNA in the presence of chemical substance/The level of expressed mRNA in the absence of chemical substance (yeast gene YLR280C, cultured two hours with substance): 0.9
The level of expressed mRNA in the presence of chemical substance/The level of expressed mRNA in the absence of chemical substance (yeast gene YLR324W, cultured two hours with substance): 1.2
The level of expressed mRNA in the presence of chemical substance/The level of expressed mRNA in the absence of chemical substance (yeast gene YLR350W, cultured two hours with substance): 1.6
The level of expressed mRNA in the presence of chemical substance/The level of expressed mRNA in the absence of chemical substance (yeast gene YLR387C, cultured two hours with substance): 1.9
The level of expressed mRNA in the presence of chemical substance/The level of expressed mRNA in the absence of chemical substance (yeast gene YLR460C, cultured two hours with substance): 0.6
The level of expressed mRNA in the presence of chemical substance/The level of expressed mRNA in the absence of chemical substance (yeast gene YML117W, cultured two hours with substance): 1.0
The level of expressed mRNA in the presence of chemical substance/The level of expressed mRNA in the absence of chemical substance (yeast gene YML128C, cultured two hours with substance): 5.1
The level of expressed mRNA in the presence of chemical substance/The level of expressed mRNA in the absence of chemical substance (yeast gene YMR009W, cultured two hours with substance): 1.2
The level of expressed mRNA in the presence of chemical substance/The level of expressed mRNA in the absence of chemical substance (yeast gene YMR067C, cultured two hours with substance): 1.4
The level of expressed mRNA in the presence of chemical substance/The level of expressed mRNA in the absence of chemical substance (yeast gene YMR090W, cultured two hours with substance): 3.8
The level of expressed mRNA in the presence of chemical substance/The level of expressed mRNA in the absence of chemical substance (yeast gene YMR095C, cultured two hours with substance): 0.7
The level of expressed mRNA in the presence of chemical substance/The level of expressed mRNA in the absence of chemical substance (yeast gene YMR097C, cultured two hours with substance): 1.2
The level of expressed mRNA in the presence of chemical substance/The level of expressed mRNA in the absence of chemical substance (yeast gene YMR102C, cultured two hours with substance): 6.3
The level of expressed mRNA in the presence of chemical substance/The level of expressed mRNA in the absence of chemical substance (yeast gene YMR107W, cultured two hours with substance): 1.0
The level of expressed mRNA in the presence of chemical substance/The level of expressed mRNA in the absence of chemical substance (yeast gene YMR140W, cultured two hours with substance): 17.1
The level of expressed mRNA in the presence of chemical substance/The level of expressed mRNA in the absence of chemical substance (yeast gene YMR173W (stress protein genes)): 5.0
The level of expressed mRNA in the presence of chemical substance/The level of expressed mRNA in the absence of chemical substance (yeast gene YMR180C, cultured two hours with substance): 2.4
The level of expressed mRNA in the presence of chemical substance/The level of expressed mRNA in the absence of chemical substance (yeast gene YMR184W, cultured two hours with substance): 0.9
The level of expressed mRNA in the presence of chemical substance/The level of expressed mRNA in the absence of chemical substance (yeast gene YMR191W, cultured two hours with substance): 1.0
The level of expressed mRNA in the presence of chemical substance/The level of expressed mRNA in the absence of chemical substance (yeast gene YMR295C, cultured two hours with substance): 1.9
The level of expressed mRNA in the presence of chemical substance/The level of expressed mRNA in the absence of chemical substance (yeast gene YMR316W, cultured two hours with substance): 0.7
The level of expressed mRNA in the presence of chemical substance/The level of expressed mRNA in the absence of chemical substance (yeast gene YNL044W, cultured two hours with substance): 0.9
The level of expressed mRNA in the presence of chemical substance/The level of expressed mRNA in the absence of chemical substance (yeast gene YNL074C, cultured two hours with substance): 1.7
The level of expressed mRNA in the presence of chemical substance/The level of expressed mRNA in the absence of chemical substance (yeast gene YNL092W, cultured two hours with substance): 1.2
The level of expressed mRNA in the presence of chemical substance/The level of expressed mRNA in the absence of chemical substance (yeast gene YNL115C, cultured two hours with substance): 9.1
The level of expressed mRNA in the presence of chemical substance/The level of expressed mRNA in the absence of chemical substance (yeast gene YNL156C, cultured two hours with substance): 1.3
The level of expressed mRNA in the presence of chemical substance/The level of expressed mRNA in the absence of chemical substance (yeast gene YNL160W (stress protein genes)): 5.8
The level of expressed mRNA in the presence of chemical substance/The level of expressed mRNA in the absence of chemical substance (yeast gene YNL190W, cultured two hours with substance): 0.5
The level of expressed mRNA in the presence of chemical substance/The level of expressed mRNA in the absence of chemical substance (yeast gene YNL208W, cultured two hours with substance): 1.4
The level of expressed mRNA in the presence of chemical substance/The level of expressed mRNA in the absence of chemical substance (yeast gene YNL234W, cultured two hours with substance): 1.3
The level of expressed mRNA in the presence of chemical substance/The level of expressed mRNA in the absence of chemical substance (yeast gene YNL281W, cultured two hours with substance): 0.9
The level of expressed mRNA in the presence of chemical substance/The level of expressed mRNA in the absence of chemical substance (yeast gene YNL300W, cultured two hours with substance): 0.4
The level of expressed mRNA in the presence of chemical substance/The level of expressed mRNA in the absence of chemical substance (yeast gene YNL305C, cultured two hours with substance): 1.1
The level of expressed mRNA in the presence of chemical substance/The level of expressed mRNA in the absence of chemical substance (yeast gene YNR064C, cultured two hours with substance): 2.1
The level of expressed mRNA in the presence of chemical substance/The level of expressed mRNA in the absence of chemical substance (yeast gene YNR068C, cultured two hours with substance): 0.4
The level of expressed mRNA in the presence of chemical substance/The level of expressed mRNA in the absence of chemical substance (yeast gene YOL032W, cultured two hours with substance): 2.1
The level of expressed mRNA in the presence of chemical substance/The level of expressed mRNA in the absence of chemical substance (yeast gene YOL036W, cultured two hours with substance): 1.2
The level of expressed mRNA in the presence of chemical substance/The level of expressed mRNA in the absence of chemical substance (yeast gene YOL047C, cultured two hours with substance): 1.5
The level of expressed mRNA in the presence of chemical substance/The level of expressed mRNA in the absence of chemical substance (yeast gene YOL071W, cultured two hours with substance): 1.7
The level of expressed mRNA in the presence of chemical substance/The level of expressed mRNA in the absence of chemical substance (yeast gene YOL082W, cultured two hours with substance): 1.8
The level of expressed mRNA in the presence of chemical substance/The level of expressed mRNA in the absence of chemical substance (yeast gene YOL083W, cultured two hours with substance): 4.5
The level of expressed mRNA in the presence of chemical substance/The level of expressed mRNA in the absence of chemical substance (yeast gene YOL117W, cultured two hours with substance): 2.0
The level of expressed mRNA in the presence of chemical substance/The level of expressed mRNA in the absence of chemical substance (yeast gene YOL131W, cultured two hours with substance): 1.1
The level of expressed mRNA in the presence of chemical substance/The level of expressed mRNA in the absence of chemical substance (yeast gene YOL150C, cultured two hours with substance): 5.2
The level of expressed mRNA in the presence of chemical substance/The level of expressed mRNA in the absence of chemical substance (yeast gene YOL162W, cultured two hours with substance): 1.2
The level of expressed mRNA in the presence of chemical substance/The level of expressed mRNA in the absence of chemical substance (yeast gene YOR019W, cultured two hours with substance): 1.3
The level of expressed mRNA in the presence of chemical substance/The level of expressed mRNA in the absence of chemical substance (yeast gene YOR197W, cultured two hours with substance): 1.3
The level of expressed mRNA in the presence of chemical substance/The level of expressed mRNA in the absence of chemical substance (yeast gene YOR248W, cultured two hours with substance): 0.2
The level of expressed mRNA in the presence of chemical substance/The level of expressed mRNA in the absence of chemical substance (yeast gene YOR255W, cultured two hours with substance): 0.5
The level of expressed mRNA in the presence of chemical substance/The level of expressed mRNA in the absence of chemical substance (yeast gene YOR382W, cultured two hours with substance): 13.1
The level of expressed mRNA in the presence of chemical substance/The level of expressed mRNA in the absence of chemical substance (yeast gene YOR383C): 6.8
The level of expressed mRNA in the presence of chemical substance/The level of expressed mRNA in the absence of chemical substance (yeast gene YPL052W, cultured two hours with substance): 1.9
The level of expressed mRNA in the presence of chemical substance/The level of expressed mRNA in the absence of chemical substance (yeast gene YPL087W, cultured two hours with substance): 4.3
The level of expressed mRNA in the presence of chemical substance/The level of expressed mRNA in the absence of chemical substance (yeast gene YPL196W, cultured two hours with substance): 2.0
The level of expressed mRNA in the presence of chemical substance/The level of expressed mRNA in the absence of chemical substance (yeast gene YPL206C, cultured two hours with substance): 1.8
The level of expressed mRNA in the presence of chemical substance/The level of expressed mRNA in the absence of chemical substance (yeast gene YPL222W, cultured two hours with substance): 2.2
The level of expressed mRNA in the presence of chemical substance/The level of expressed mRNA in the absence of chemical substance (yeast gene YPR023C, cultured two hours with substance): 1.4
The level of expressed mRNA in the presence of chemical substance/The level of expressed mRNA in the absence of chemical substance (yeast gene YPR079W, cultured two hours with substance): 1.0
The level of expressed mRNA in the presence of chemical substance/The level of expressed mRNA in the absence of chemical substance (yeast gene YPR151C, cultured two hours with substance): 1.6
